Usually IC50 stands for the concentration needed to halve the response being measured.

Assay type in all cases: cell-based, human
For one test, the system named is MV-4-11. Kind of test: Proliferation inhibition, CellTiter-Glo, MV-4-11. As to conditions: Homo sapiens, MV4-11, 96 h; MV-4:11 cells, IC50 (4 days), CellTiter-Glo; read-out: MV-4:11 IC50. An excerpt:
(§1) The proliferation inhibitory effect was investigated in human AML cell lines MOLM-13 (AddexBio: C0003003) and MV-4-11 (ATCC: CRL-9591), and CML cell line […] (ATCC: CRL-3343). Molm-13 is heterozygous for FLT3-ITD mutation, while MV4-11 is homozygous for FLT3-ITD (Quentmeier H, et al., Leukemia. 17(1):120-4). […] Cells were maintained in RPMI-1640 medium (ThermoFisher catalog no. 61870036) supplemented with 10% of Heat Inactivated FBS (ThermoFisher catalog no. A31605) and 1% Pen-Strep (ThermoFisher catalog no. 10378016) and cultured at 37° C. in a humidified incubator with 5% CO2. Cell lines were grown by […], and the cells were maintained in a range 70%-80% confluency.
(§2) ATP is present in all metabolically active cells and is considered as a marker for cell viability and proliferation. Metabolic cell activity was determined using the CellTiter-Glo kit (Promega catalog no. G7572), an ATP monitoring system based on the production of luminescence by the reaction of ATP with added UltraGlo® recombinant luciferase (Kawano et al., 2016, PLOS One, 8; 11(7):e0158888), according to the supplier's experimental recommendations. The assay was based on a 96 well plate format.
(§3) Test compounds were dissolved at 10 mM in DMSO (Sigma catalog no. D8418; purity≥99.9%) and stored at −20° C. Eight concentrations of test compound were assessed in duplicate in an individual test occasion in parallel in the selected cell lines. Gilteratinib and FF-10101 were used as reference compounds and tested in duplicate at eight concentrations. 100% of proliferation is represented by the untreated cells (0.2% DMSO).
(§4) On the day of the experiment, cells were quantified with the cell viability analyzer NucleoCounter (Chemometec NC-200) and diluted with fresh medium to obtain the cell density of about 10,000 cells per 200 μL medium. 200 μL of cell suspension were added into wells in the 96 well plate.
(§5) After 2 hours from seeding cells, compounds at desired concentrations were added using a D300e compound dispenser (Life Sciences Tecan D300) with shaking between each compound dispensed. Assay plates were incubated at 37° C. in a humidified incubator with 5% CO2.
(§6) On day 4 (˜96 hrs after compound addition) assay plates were equilibrated at room temperature for approximately 15 min, and then 40 μL/well of the Promega CellTiterGlo® reagent was added. Contents were mixed for 5 min on an orbital shaker to promote cell lysis, and then incubated at room temperature for an additional 10 min in the dark to stabilize the luminescent signal. Luminescence was read by using a GloMlax GM300 plate reader (Promega) using the luminescence for 96 well plate standard protocol.
(§7) Results were analyzed by GraphPad (Prism) and IC50 values were calculated by non-linear regression using four parameter-logistic equation.
(In general: In ATP-based viability assays light output follows the ATP content of the culture.)

The subject of another test is MOLM-13. The experiment in a line: Proliferation inhibition, CellTiter-Glo, MOLM-13. The settings on record: Homo sapiens, 96 h; MOLM-13 cells, IC50 (4 days), CellTiter-Glo; read-out: MOLM-13 IC50.
From the text: as §1, §2, §3, §4, §5, §6, §7

The next test concerns K-562. The experiment in a line: Proliferation inhibition, CellTiter-Glo, K-562. The settings on record: Homo sapiens, K562, 96 h; K-562 cells, IC50 (4 days), CellTiter-Glo; read-out: K-562 IC50.
From the text: as §1, §2, §3, §4, §5, §6, §7

Each structure is given as a SMILES string. Where only a bound is given, the exact number is not on record here.

As for `CCc1nc(C(N)=O)c(Nc2ccnc(CCNC(=O)CN(C)C(=O)/C=C/CN3CCC3)c2)nc1CC(C)C` [Compound 604, (E)-3-((2-(2-(2-(4-(azetidin-1-yl)-N-methylbut-2-enamido)acetamido)ethyl)pyridin-4-yl)amino)-6-ethyl-5-isobutylpyrazine-2-carboxamide], the IC50 in the test on MV-4-11 is < 1 nM; in the test on MOLM-13 it was 1 to 10 nM; with K-562, > 500 nM.

`Cc1nc(Nc2cc(F)cc(CCNC(=O)CN(C)C(=O)/C=C/CN(C)C)c2)c(C(N)=O)nc1C` [Compound 251, 3-[3-[2-[[2-[[(E)-4-(dimethylamino)but-2-enoyl]-methyl-amino]acetyl]amino]ethyl]-5-fluoro-anilino]-5,6-dimethyl-pyrazine-2-carboxamide]: the figures for the IC50 in the test with MV-4-11, with MOLM-13 and in the test with K-562 were 1 to 10 nM, 10 to 100 nM and > 500 nM, respectively.

`CCc1nc(C(N)=O)c(Nc2cccc(CCNC(=O)[C@H](C)N(C)C(=O)CCCN(C)C)c2)nc1N(C)C(C)C` [Compound 318, 3-[3-[2-[[(2S)-2-[4-(dimethylamino)butanoyl-methyl-amino]propanoyl]amino]ethyl]anilino]-6-ethyl-5-[isopropyl(methyl)amino]pyrazine-2-carboxamide]: the IC50 was 1 to 10 nM in the test on MV-4-11, 10 to 100 nM in the test with MOLM-13 and > 500 nM in the test with K-562.

As to `C=CC(=O)N(C)[C@@H](C)C(=O)NCCc1cccc(Nc2nc(C)c(CC)nc2C(N)=O)c1` [Compound 216, 6-ethyl-5-methyl-3-[3-[2-[[(2S)-2-[methyl(prop-2-enoyl)amino]propanoyl]amino]ethyl]anilino]pyrazine-2-carboxamide], the IC50 was 10 to 100 nM in the test on MV-4-11, 10 to 100 nM in the test with MOLM-13 and > 500 nM in the test with K-562.

Consider `CCc1nc(C(N)=O)c(Nc2cccc(C[C@H](C)NC(=O)[C@H](C)N(C)C(=O)/C=C/CN(C)C)c2)nc1C` [Compound 317, 3-[3-[(2S)-2-[[(2S)-2-[[(E)-4-(dimethylamino)but-2-enoyl]-methyl-amino]propanoyl]amino]propyl]anilino]-6-ethyl-5-methyl-pyrazine-2-carboxamide], for which the IC50 in the test on MV-4-11 was 1 to 10 nM; in the test on MOLM-13, 10 to 100 nM; in the test on K-562 it was > 500 nM.

Turning to `Cc1nc(C(N)=O)c(Nc2cccc(CCNC(=O)[C@H](C)N(C)C(=O)/C=C/CN3CCC3)c2)nc1N(C)C` [Compound 230, (S,E)-3-((3-(2-(2-(4-(azetidin-1-yl)-N-methylbut-2-enamido)propanamido)ethyl)phenyl)amino)-5-(dimethylamino)-6-methylpyrazine-2-carboxamide], the values for the IC50 with MV-4-11, in the test with MOLM-13 and in the test on K-562 were < 1 nM, 1 to 10 nM and > 500 nM, respectively.

As to `CCc1nc(C(N)=O)c(Nc2cccc(CCNC(=O)C3(N(C)C(=O)/C=C/CN(C)C)CC3)c2)nc1C1CC1` [Compound 220, 5-cyclopropyl-3-[3-[2-[[1-[[(E)-4-(dimethylamino)but-2-enoyl]-methyl-amino]cyclopropanecarbonyl]amino]ethyl]anilino]-6-ethyl-pyrazine-2-carboxamide], the IC50 in the test with MV-4-11 was 1 to 10 nM; with MOLM-13, 10 to 100 nM; with K-562, > 500 nM.

In the case of `CCc1nc(C(N)=O)c(Nc2cccc(CCNC(=O)[C@H](C)N(C)C(=O)/C=C/CN(C)C)n2)nc1C1CC1` [Compound 313, 5-cyclopropyl-3-[[6-[2-[[(2S)-2-[[(E)-4-(dimethylamino)but-2-enoyl]-methyl-amino]propanoyl]amino]ethyl]-2-pyridyl]amino]-6-ethyl-pyrazine-2-carboxamide], the results for the IC50 in the test with MV-4-11, in the test on MOLM-13 and with K-562 were 10 to 100 nM, 100 to 500 nM and > 500 nM, respectively.

Regarding `CCc1nc(Nc2cccc(CCNC(=O)[C@H](C)N(C)C(=O)/C=C/CN(C)C)c2)c(C(N)=O)nc1C` [Compound 255, 3-[3-[2-[[(2S)-2-[[(E)-4-(dimethylamino)but-2-enoyl]-methyl-amino]propanoyl]amino]ethyl]anilino]-5-ethyl-6-methyl-pyrazine-2-carboxamide], the IC50 in the test with MV-4-11 is 1 to 10 nM; in the test with MOLM-13, 10 to 100 nM; in the test on K-562, > 500 nM.

With `C=CC(=O)N(C)[C@@H](C)C(=O)NCCc1cccc(Nc2nc(N(C)C)c(C)nc2C(N)=O)c1` [Compound 218, 5-(dimethylamino)-6-methyl-3-[3-[2-[[(2S)-2-[methyl(prop-2-enoyl)amino]propanoyl]amino]ethyl]anilino]pyrazine-2-carboxamide], the IC50 in the test with MV-4-11 was 1 to 10 nM; with MOLM-13, 10 to 100 nM; in the test on K-562, > 500 nM.

In the case of `CCc1nc(C(N)=O)c(Nc2cccc([C@@H](C)CNC(=O)[C@H](C)N(C)C(=O)/C=C/CN(C)C)c2)nc1C` [Compound 326, 3-((3-((R)-1-((S)-2-((E)-4-(dimethylamino)-N-methylbut-2-enamido)propanamido)propan-2-yl)phenyl)amino)-6-ethyl-5-methylpyrazine-2-carboxamide], the IC50 with MV-4-11, in the test with MOLM-13 and with K-562 was > 500 nM throughout.

As for `[2H]C([2H])([2H])N(C(=O)C=C)[C@@H](C)C(=O)NCCc1cccc(Nc2nc(C3CC3)c(CC)nc2C(N)=O)c1` [Compound 237, 5-cyclopropyl-6-ethyl-3-[3-[2-[[(2S)-2-[prop-2-enoyl(trideuteriomethyl)amino]propanoyl]amino]ethyl]anilino]pyrazine-2-carboxamide], the concentration for half-maximal inhibition (IC50) in the test on MV-4-11 was 1 to 10 nM; in the test with MOLM-13 it was 10 to 100 nM; in the test on K-562, > 500 nM.

As to `CCc1nc(C(N)=O)c(Nc2cccc(CCNC(=O)C3(N(C)C(=O)/C=C/CN(C)C)CC3)c2)nc1C` [Compound 223, 3-[3-[2-[[1-[[(E)-4-(dimethylamino)but-2-enoyl]-methyl-amino]cyclopropanecarbonyl]amino]ethyl]anilino]-6-ethyl-5-methyl-pyrazine-2-carboxamide], the IC50 with MV-4-11 is 1 to 10 nM; in the test on MOLM-13, 10 to 100 nM; in the test with K-562, > 500 nM.

`C=CC(=O)N(C)CC(=O)NC[C@H](C)c1cccc(Nc2nc(CC(C)C)c(CC)nc2C(N)=O)c1` [Compound 512, (R)-6-ethyl-5-isobutyl-3-((3-(1-(2-(N-methylacrylamido)acetamido)propan-2-yl)phenyl)amino) pyrazine-2-carboxamide]: the IC50 was 10 to 100 nM with MV-4-11, > 500 nM with MOLM-13 and > 500 nM with K-562.

On to `CCc1cc(C(N)=O)c(Nc2cncc(CCNC(=O)[C@H](C)N(C)C(=O)/C=C/CN(C)C)c2)nc1C1CC1` [Compound 320, 6-cyclopropyl-2-[[5-[2-[[(2S)-2-[[(E)-4-(dimethylamino)but-2-enoyl]-methyl-amino]propanoyl]amino]ethyl]-3-pyridyl]amino]-5-ethyl-pyridine-3-carboxamide], for which the IC50 with MV-4-11 is 10 to 100 nM; in the test on MOLM-13, 100 to 500 nM; in the test on K-562 it was > 500 nM.

For `CC#CC(=O)N(C)[C@@H](C)C(=O)NCCc1cccc(Nc2nc(C3CC3)c(CC)nc2C(N)=O)c1` [Compound 209, 3-[3-[2-[[(2S)-2-[but-2-ynoyl(methyl)amino]propanoyl]amino]ethyl]anilino]-5-cyclopropyl-6-ethyl-pyrazine-2-carboxamide], the IC50 with MV-4-11 is 1 to 10 nM; in the test on MOLM-13 it was 10 to 100 nM; in the test with K-562, > 500 nM.
